Laboratory results: patent publication US9795602B2, “Polycyclic-carbamoylpyridone compounds and their pharmaceutical use” (Gilead Sciences, Inc., priority 2014, dated 2017)

Assays:
[1] = system: HIV-IIIb; assay: Antiviral assay in MT4 cells; assay type: cell-based; conditions: Human immunodeficiency virus 1, IIIB, MT4, 120 h, MT4 cells, HIV-IIIb, 5 days; read-out: EC50
Method in brief: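 MT4 cells infected with HIV-IIIb (0.004 m.o.i.) or mock-infected, then plated at 2000 cells per well with compound. After 5 days at 37 °C, cell viability read by CellTiter-Glo chemiluminescence.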

[2] = Cytotoxicity (CC50) in MT4 cells, mock-infected; assay type: cell-based; conditions: human, mock-infected
Method in brief: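 Uninfected MT4 cells, 2000 per well, incubated with compound 5 days at 37 °C. Viability by CellTiter-Glo luminescence after 2–3 min lysis at room temperature.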

[3] = target: OCT2 (Homo sapiens (Human), UniProt O15244); assay: OCT2 inhibition assay (14C-TEA uptake, OCT2-transfected MDCKII cells); assay type: cell-based
Method: MDCKII cells were maintained in minimal essential medium (MEM) with 1% Pen/Strep, 10% fetal bovine serum, and 0.25 mg/mL hygromycin B in an incubator set at 37° C., 90% humidity and 5% CO2. 24 hours prior to assay, media containing 5 mM sodium butyrate were added to MDCKII cells in flasks, and cells were grown to 80-90% confluence. On assay day, cells were trypsinized and resuspended in Krebs-Henseleit Buffer (KHB), pH 7.4 at […]. Cells were preincubated for 15 min in assay plate before addition of test compound or substrate.
Test compounds were serially diluted in DMSO and then spiked (2 μL) into in 0.4 mL KHB buffer containing wild-type or OCT2-transfected cells and incubated for 10 minutes. Assay was initiated with the addition of 0.1 mL of 100 μM ^14C-TEA in KHB buffer (20 μM final concentration after mixing). The concentration of TEA is based on the Km. After 10 minutes of incubation, the assay mixture was quenched with addition of 0.5 mL of ice-cold 1×PBS buffer. Samples were then centrifuged at 1000 rpm for 5 min and supernatants were removed. Wash steps were repeated four times with ice-cold PBS. Finally, the cell pellets were lysed with 0.2N NaOH and let sit at room temperature for at least 30 min to ensure complete lysis. Samples were then counted on liquid scintillation counter and dpm counts were used to perform the following calculations. The % inhibition was calculated as follows: % inhibition=[1−{[OCT2]i−[WT]ni}/{[OCT2]ni−[WT]ni}]*100 where, [OCT2]i represents the dpm count in the presence of test compound for either OCT2 cells, […] of test compound for OCT2 cells and [WT]ni represents the dpm count in the absence of test compound for wild type cells, respectively.

[4] = system: HIV-1 E92Q/N155H; assay type: cell-based; conditions: MT2 cells; mean EC50 mutant / mean EC50 wt
Method: For the antiviral assay utilizing MT-2 cells, 50 μL of 2× test concentration of 3-fold serially diluted compound in culture medium with 10% FBS was added to each well of a 96-well plate (9 concentrations) in triplicate. MT-2 cells were infected with wild-type or mutant variants of HIV-1 for 3 hours using a volume of viral inoculum determined to produce 90% cell killing. Fifty microliters of infected cell suspension in culture medium with 10% FBS (˜1.5×10^4 cells) was then added to each well containing 50 μL of serially diluted compound. The plates with HIV-infected cultures were then incubated at 37° C. for 5 days in the presence of the tested compounds. After 5 days of incubation, 100 μL of CellTiter-Glo™ Reagent (catalog # G7571, Promega Biosciences, Inc., Madison, Wis.) was added to each well. Cell lysis was carried out by incubating at room temperature for 10 min followed by a chemiluminescence read-out.
The chemiluminescence readout from the 10-point antiviral dose response was analyzed directly by curve fitting with equation (I) to determine the EC50.
where y=Cell Survival, M=maximum cell survival enabled by drug protection, H=baseline cell survival without drug protection, n=Hill coefficient of the antiviral dose response, m=Hill coefficient of the cytotoxicity dose response, and [I]=inhibitor concentration.
EC50 values (mean±standard deviation) were calculated from at least three independent experiments performed in triplicate. The fold-change in antiviral activity of tested compounds was calculated as a ratio of the mean EC50 for each mutant virus divided by the mean EC50 of the control WT virus.

[5] = Plasma protein binding (equilibrium dialysis); assay type: in vitro ADME; conditions: human, plasma (sodium EDTA) dialysed against buffer; 2 μM in plasma vs. buffer, 24 hours at 37° C.; read-out: % Free HP/Buffer
Method: Plasma protein binding was determined using a HTD96b equilibrium dialyzer with a plate base, stainless steel pressure plate and Teflon bock. 9 Teflon bars, labeled sequentially from A through I, were assembled with two stainless steel connecting rods. Membranes were placed between two Teflon bars, with the membrane placed approximately 2 mm below the top edge of the bar and the lower membrane edge overlapped the bottom of all wells. The membrane was soaked for about 20 minutes in water, about 20 minutes in ethanol (30/70 v/v) and rinsed with water three times to remove the ethanol. It was soaked in PBS for at least 30 minutes. Plasma in sodium EDTA (Bioreclamation or equivalent) was used. The Plasma (not pH-adjusted) was stored at −80° C. and thawed at room temperature before use. The stock solution of the compounds tested was at 200 μM in DMSO. The quench solution used was 50 nM of an internal standard in 100% ACN. To prepare a 2 μM solution of the compound tested in plasma, 5 μL of a 200 μM stock solution was added to 495 μL of blank plasma. 100 μL plasma was added with 2 μM of test compound into one side of the well. 100 μL of buffer (for plasma vs. buffer) was added into another side of the well. The 96-well plate was covered using an adhesive sealing film and incubated for 24 hours at 37° C. under slow rotation. This procedure was replicated for each compound. 50 μL of plasma sample was put into a 96 well plate, 50 μL of buffer was added. 50 μL of buffer was put into a 96 well plate. 50 μL of plasma was added. 300 μL of quench solution was added and the plate sealed and shaken for 15 minutes. The material was centrifuged for 30 minutes at 3000 RPM and ˜250 μL was transferred into a short plate. The samples were analyzed by LC/MS. The resulting data is shown in the last row of Table 3 as “% Free” which corresponds to the percentage of compound not protein bound.

Sequence of OCT2 (O15244 whole entry): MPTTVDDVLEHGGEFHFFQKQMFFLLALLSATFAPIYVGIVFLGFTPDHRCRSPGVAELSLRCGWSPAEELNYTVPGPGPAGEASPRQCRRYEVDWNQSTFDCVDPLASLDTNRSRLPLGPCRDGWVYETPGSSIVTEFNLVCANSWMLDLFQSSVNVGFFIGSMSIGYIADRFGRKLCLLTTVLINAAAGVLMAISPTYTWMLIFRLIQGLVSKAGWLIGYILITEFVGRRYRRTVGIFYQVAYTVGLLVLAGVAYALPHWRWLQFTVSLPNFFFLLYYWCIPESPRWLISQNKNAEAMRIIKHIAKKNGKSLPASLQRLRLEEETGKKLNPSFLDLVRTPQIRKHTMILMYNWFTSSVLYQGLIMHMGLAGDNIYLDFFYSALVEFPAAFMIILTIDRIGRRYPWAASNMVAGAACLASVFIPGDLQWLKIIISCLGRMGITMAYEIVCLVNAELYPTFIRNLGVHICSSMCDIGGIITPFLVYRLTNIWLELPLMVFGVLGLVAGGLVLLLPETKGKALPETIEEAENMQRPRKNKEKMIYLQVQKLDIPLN

Compound	EC50 [1] [µM]	CC50 at 5 days [2] [µM]	IC50 [3] [µM]	Resistance fold shift E92Q/N155H vs. wild type [4] [fold shift]	fraction unbound at 24 h, 2 µM [5]
CCN1C(=O)c2c(O)c(=O)c(C(=O)NCc3ccc(F)c(Cl)c3F)cn2[C@H]2CCO[C@H]21 [Compound 25b]	0.00437	26.7	10	2.2	< 0.001
CCN1C(=O)c2c(O)c(=O)c(C(=O)NCc3ccc(F)c(Cl)c3F)cn2[C@H]2CCOC[C@H]21 [Compound 39]	0.00258	12.8	10	2.3	0.0067
